# Reference: patent US20200236933A1, “USE OF A NON-IONIC SURFACTANT WHICH IS A POLYOL DERIVATIVE AS A PLANT GROWTH STIMULATING AGENT OR AS AN ADJUVANT” (priority 2017, published 2020)
# Key:
# [1] = test system: parsley leaves; assay: Calcium content of the leaves; format: in vivo; conditions: 3% solution, watering every three days and spraying twice daily, seven days
# Excerpt: After seven days of treatment, the leaves are harvested and analyzed to determine their calcium content.
# [2] = test system: maize seeds; assay: Germination of maize seeds after immersion treatment (Example 2); format: in vivo; conditions: maize seeds immersed 1 h in 0.75% solution
# Method: (§1) The seeds are next dried in a heating tunnel at 45° C. for one hour. Four batch repetitions of 16 seeds are deposited on Petri dishes containing a medium composed of 2% Agar Agar and 98% water.
# (§2) The Petri dishes are kept at ambient temperature and in darkness. Each day the number of seeds that have germinated (having a radicle) is counted.
# [3] = pH modification of the mixture; format: physicochemical; conditions: increasing concentration of the 2.5% sucrose stearate solution added to a solution at pH 9.4
# [4] = test system: parsley seeds; assay: Germination of parsley seeds after immersion treatment; format: in vivo; conditions: parsley seeds immersed 1 h in 0.75% solution
# Method: The seeds are next dried in a heating tunnel at 45° C. for one hour. Two batch repetitions of 48 seeds are deposited on Petri dishes containing a medium composed of 2% Agar Agar and 98% water.
# as §2
# [5] = test system: Helminthosphaeria; assay: Reduction of phytosanitary products on maize; format: in vivo, maize (P7043, Pioneer); conditions: 25% of recommended dose (0.25 L/ha Amistar + 0.6 L/ha Cicero) plus 3 L/ha sucrose stearate; 12-14 leaf stage
# Method: Assays in a climate-controlled chamber were carried out on maize ([…], Pioneer). The maize was sowed in containers of 1 meter by 1 meter. […] […]® comprises the active ingredient: azoxystrobin (belonging to the strobilurin family), and Cicero® comprises two active ingredients: chlorothalonil (belonging to the chloronitrile family), and flutriafol (belonging to the triazole family). […] The containers were then taken out of the climate-controlled chamber and disposed near a field having more than 50% of maize plants diseased with Helminthosphaeria. After 1 day, the containers were placed back in the climate-controlled chamber under controlled conditions.
# [6] = test system: strawberry leaves; assay: Spreading of an aqueous solution on a leaf; format: in vivo; conditions: 0.75% solution sprayed on strawberry leaves
# Method: Strawberry plants in pots are grown in a climate-controlled chamber in the following conditions: 23° C. and a photoperiod of 16 h/8 h.
# [7] = test system: Aspergillus niger; assay: Fungicide effect by antibiogram type method; format: cell-based
# Excerpt: In order to evaluate any impact of the sugar esters used according to the invention on microorganisms, the fungicide effect was searched for by an antibiogram type method. The method consists of: • spreading a solution contaminated with the mold Aspergillus niger on the surface of a Petri dish containing glucose gel growth medium with chloramphenicol. • arrange 4 sterile antibiogram disks of 6 mm diameter per Petri dish. • inoculate with 3 drops (0.071 g) of solution to test or control solution per disk. The dishes are next placed in the incubator at 25° C. for 5 days. Measurement of the inhibitory diameter is carried out every day.
# [8] = test system: winter barley (Sobell variety); assay: Yield of winter barley in climate controlled chamber; format: in vivo; conditions: 3 l/ha of 3% solution sprayed at commencement of tillering
# Method: Assays in a climate controlled chamber (temperature 22° C./20° C., photoperiod 16 h/8 h, 25,000 lux) were carried out on winter barley (Sobell variety, Arvalis). The barley was sowed in containers of 1 meter by 1 meter.
# The plants were then watered every 2 weeks with the same amount of water for both control batch and treated batch.
# The yields were then calculated as the ratio of the weight of harvested seeds to the sowed area. This ratio is expressed in q/ha.
# [9] = test system: parsley plants; assay: Protein content of parsley; format: in vivo; conditions: 40 ml of 0.75% solution every three days, 23 days
# Method: Each batch consists of four pots. After 23 days of treatment the leaves are cut and an analysis of the amount of protein is carried out.
# [10] = test system: detached leaves of Buddleja davidii; assay: Stickiness of a solution on the leaf (washing off); conditions: 2.5% with 3% titanium dioxide; washed with 14 g water
# Excerpt: A solution is applied by spraying on detached leaves of Buddleja davidii disposed flat on a support.
# The leaves were next left at ambient temperature until the sprayed solutions had completely evaporated.
# 14 grams of water are next sprayed onto the leaves held vertical to simulate rain. The titanium residues on the leaf are next observed.
# [11] = test system: Septoria leaf spot; assay: Reduction of phytosanitary products on wheat; format: in vivo, soft winter wheat (GARCIA variety); conditions: 25% of recommended dose (0.15 L/ha Priaxor + 0.15 L/ha Reimer Pro) plus 3 L/ha sucrose stearate; start of coming into ear
# Method: Assays in a climate-controlled chamber were carried out on soft winter wheat (GARCIA variety, Arvalis). The wheat was sowed in containers of 1 meter by 1 meter. […] Priaxor® comprises two active ingredients: fluxapyroxad (belonging to the SDHI family) and pyraclostrobin (belonging to the strobilurin family) and Reimer® Pro comprises the active ingredient metconazole (belonging to the triazole family).
# The containers were then taken out of the climate-controlled chamber and disposed near a field having more than 50% of wheat plants diseased with Septoria leaf spot. After 1 day, the containers were placed back in the climate-controlled chamber under controlled conditions.
# [12] = test system: maize seeds; assay: Root growth (rootlets) of maize seeds; format: in vivo; conditions: maize seeds immersed 1 h in 2.5% solution; after two days
# Method: as §1
# The Petri dishes are kept at ambient temperature and in darkness.
# [13] = test system: flat-leaf parsley variety NOVAS; assay: Vertical anchoring of the root, assays in fields; format: in vivo; conditions: seeds immersed 1 h in 2.5% solution; 12 weeks after sowing
# Method: In order to test the effect of the invention in conditions of crops in the field, the flat-leaf parsley variety NOVAS is used.
# The seeds are next dried in a heating tunnel at 45° C. for 1 h.
# The seeds are mechanically sown (seeder) on strips of four rows each one beside the other to limit as much as possible the variations in soil quality, insulation and temperature.
# 12 weeks after sowing, 25 parsley plants were harvested in order to observe root morphology.
# [14] = Homogenization of the mixture; format: physicochemical; conditions: 1% with 2% glycerin colored blue
# Excerpt: The mixtures were next stirred in equivalent manner. Photographs are taken after stirring.
substance,measurement,setting,value
sucrose stearate,reduction in the level of calcium in the leaves,[1],17%
same,increase of the germination kinetics on average,[2],30%
same,"germinated seeds, treated batch compared with the control batch",[2]; after 2 days,10 times
same,pH at which the mixture stabilizes,[3],5.25
same,increase of the germination kinetics on average,[4],10%
same,"germinated seeds, treated batch compared with the control batch",[4]; between 4 days and 6 days,2 times
same,plants presenting Helminthosphaeria spots,[5],less than 10%
same,distribution of the solution on the leaf (spreading of the drops),[6],distributed evenly over the leaf
same,passage of the solution onto the lower face compared with the control batch,[6],much greater passage of the solution onto the lower face
same,Inhibitory diameter,"[7]; 0.1% solution, D1",0 mm
same,Inhibitory diameter,"[7]; 0.1% solution, D2",0 mm
same,Inhibitory diameter,"[7]; 0.1% solution, D3",0 mm
same,Inhibitory diameter,"[7]; 0.1% solution, D4",0 mm
same,Inhibitory diameter,"[7]; 0.1% solution, D5",0 mm
same,Inhibitory diameter,"[7]; 1% solution, D1",0 mm
same,Inhibitory diameter,"[7]; 1% solution, D2",0 mm
same,Inhibitory diameter,"[7]; 1% solution, D3",0 mm
same,Inhibitory diameter,"[7]; 1% solution, D4",0 mm
same,Inhibitory diameter,"[7]; 1% solution, D5",0 mm
same,Inhibitory diameter,"[7]; 3% solution, D1",0 mm
same,Inhibitory diameter,"[7]; 3% solution, D2",0 mm
same,Inhibitory diameter,"[7]; 3% solution, D3",0 mm
same,Inhibitory diameter,"[7]; 3% solution, D4",0 mm
same,Inhibitory diameter,"[7]; 3% solution, D5",0 mm
same,Inhibitory diameter,"[7]; 10% solution, D1",0 mm
same,Inhibitory diameter,"[7]; 10% solution, D2",0 mm
same,Inhibitory diameter,"[7]; 10% solution, D3",0 mm
same,Inhibitory diameter,"[7]; 10% solution, D4",0 mm
same,Inhibitory diameter,"[7]; 10% solution, D5",0 mm
same,fungicide effect,[7]; whatever the concentrations tested (0.1-10%),no fungicide effect
same,Yield,[8],67.9 q/ha
same,yield increase,[8],25%
same,increase in the protein amount compared with the control batch,[9],56%
same,titanium dioxide residue on the leaf after washing,[10],still clearly visible
same,plants diseased with Septoria leaf spot,[11],20%
same,rootlets on the germinated seeds,[12],rootlet presence is observed
same,root morphology,[13],"root elongation, coupled with vertical anchorage of the roots"
same,homogenization of the mixture,[14],better homogenization of the mixture
